Measurements reported in PubChem BioAssay (NCI).
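Method: 48-hour compound exposure of cells in 96-well plates, five concentrations, linear interpolation of endpoints. Definition used: TGI = concentration required for complete inhibition of growth.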

Key:
Test in all cases: NCI tumour cell line growth inhibition, 48 h
KM12 colon = test system: KM12 colon
CAKI-1 renal = test system: CAKI-1 renal
EKVX NSCLC = test system: EKVX NSCLC
NCI-H522 lung = test system: NCI-H522 lung
SNB-19 CNS = test system: SNB-19 CNS
RPMI-8226 leukemia = test system: RPMI-8226 leukemia
HT29 colon = test system: HT29 colon
OVCAR-8 ovarian = test system: OVCAR-8 ovarian
MOLT-4 leukemia = test system: MOLT-4 leukemia
SF-268 CNS = test system: SF-268 CNS
SK-MEL-2 melanoma = test system: SK-MEL-2 melanoma
HCT-116 colon = test system: HCT-116 colon
OVCAR-3 ovarian = test system: OVCAR-3 ovarian
K-562 leukemia = test system: K-562 leukemia
TK-10 renal = test system: TK-10 renal
HOP-92 NSCLC = test system: HOP-92 NSCLC
IGROV1 ovarian = test system: IGROV1 ovarian
PC-3 prostate = test system: PC-3 prostate
HS 578T breast = test system: HS 578T breast

| SMILES | TGI (KM12 colon) [µM] | TGI (CAKI-1 renal) [µM] | TGI (EKVX NSCLC) [µM] | TGI (NCI-H522 lung) [µM] | TGI (SNB-19 CNS) [µM] | TGI (RPMI-8226 leukemia) [µM] | TGI (HT29 colon) [µM] | TGI (OVCAR-8 ovarian) [µM] | TGI (MOLT-4 leukemia) [µM] | TGI (SF-268 CNS) [µM] | TGI (SK-MEL-2 melanoma) [µM] | TGI (HCT-116 colon) [µM] | TGI (OVCAR-3 ovarian) [µM] | TGI (K-562 leukemia) [µM] | TGI (TK-10 renal) [µM] | TGI (HOP-92 NSCLC) [µM] | TGI (IGROV1 ovarian) [µM] | TGI (PC-3 prostate) [µM] | TGI (HS 578T breast) [µM] |
| --- | --- | --- | --- | --- | --- | --- | --- | --- | --- | --- | --- | --- | --- | --- | --- | --- | --- | --- | --- |
| c1cnc2c(c1)-n1cccc1C1(CCSC1)NN2 (stereo unspecified) | > 100 | > 100 | > 100 | > 100 | > 100 | > 100 | > 100 | > 100 | > 100 | > 100 | > 100 | > 100 | > 100 | > 100 | > 100 | – | – | – | – |
| CSc1ccc(OCC2OC2O)cc1 (stereo unspecified) | > 95.9 | > 76.6 | > 100 | > 81.6 | > 100 | 99.5 | > 90.9 | > 100 | > 75.5 | – | > 100 | 36.9 | > 100 | > 100 | > 100 | > 100 | > 100 | – | – |
| O=[N+]1ON=C(c2ccccc2)C1=C1C(c2c(-c3ccccc3)no[n+]2[O-])=NON1[O-] | > 100 | 56.7 | > 100 | > 100 | > 100 | > 100 | 24.8 | > 100 | > 100 | > 100 | – | 16.2 | 30.6 | 10.6 | > 100 | 70.1 | > 100 | 11.3 | > 100 |
| COC(=O)C1=CC2CC1C(S(=O)(=O)c1ccccc1)C2S(=O)(=O)c1ccccc1 (stereo unspecified) | – | 20.8 | – | – | > 100 | 29.3 | 28.9 | 38.5 | 19.6 | 53.5 | – | 28.7 | 21.2 | 32.3 | 24.7 | 29.4 | 98.9 | – | – |
| CCOP(=O)(Nc1ccccc1P(=O)(OCC)OCC)OCC | > 100 | > 100 | > 100 | > 100 | > 100 | > 100 | > 100 | > 100 | > 100 | > 100 | > 100 | > 100 | > 100 | > 100 | > 100 | > 100 | > 100 | > 100 | > 100 |
| N#Cc1cc([N+](=O)[O-])ccc1NC(=O)C(F)(F)F | > 100 | > 100 | > 100 | > 100 | > 100 | > 66.9 | > 67.6 | > 100 | > 100 | > 100 | > 100 | > 61.5 | > 100 | > 100 | > 100 | > 100 | > 100 | – | – |
| CN(C)c1ccc(-c2c(C#N)c(O)n(NS(=O)(=O)c3ccccc3)c(=O)c2C#N)cc1 | > 100 | > 100 | > 100 | > 100 | > 100 | > 100 | > 100 | > 100 | > 100 | > 100 | > 100 | > 100 | – | > 100 | > 100 | > 100 | > 100 | > 100 | > 100 |
| NC1=NN(c2ccccc2)C(=O)C1/C(=N\NC(=O)c1cc2ccccc2cc1O)C(=O)Nc1cccc(C(F)(F)F)c1 (stereo unspecified) | > 100 | – | > 100 | – | > 100 | > 100 | > 100 | > 100 | 65.9 | > 100 | 93.8 | 94.9 | > 100 | – | > 100 | > 100 | > 100 | – | – |
| CCC12CCCNC1c1c(n(C)c3ccccc13)C(C(=O)OC)C2 (stereo unspecified) | 161 | 77.3 | > 275 | 37.6 | > 275 | 199 | 114 | > 275 | > 275 | > 275 | 259 | > 275 | 91.1 | > 275 | > 275 | 113 | > 275 | – | – |
| CC1(C)OCC(C2OC(OC(=O)c3ccc([N+](=O)[O-])cc3)C3OC(C)(C)OC23)O1 (stereo unspecified) | > 100 | > 100 | > 100 | > 100 | > 100 | > 100 | > 100 | > 100 | > 100 | > 100 | > 100 | > 100 | > 100 | > 100 | > 100 | – | > 100 | > 100 | – |
| CSc1cc(Br)ccc1-n1c(C(=O)c2ccccc2)c(SC)n(-c2ccccc2)c1=O | > 100 | > 100 | > 100 | > 100 | > 100 | – | > 100 | > 100 | > 100 | > 100 | – | > 100 | > 100 | > 100 | > 100 | > 100 | > 100 | > 100 | > 100 |
| Cc1cc(C)n2c(-c3ccccc3)c(C)cc2n1 | > 100 | > 100 | > 100 | 64.4 | > 100 | – | > 100 | > 100 | – | > 100 | > 100 | > 100 | 83.3 | > 100 | > 100 | > 100 | > 100 | – | – |
| CC1(c2cccc(N)c2)C2C(=O)NC(=O)C1C(=O)NC2=O (stereo unspecified) | > 100 | > 100 | > 100 | 46.3 | > 100 | 40.3 | > 100 | > 100 | 47.6 | > 100 | 57.7 | – | 57.1 | 67.3 | > 100 | 57.3 | > 100 | – | – |
| CC1=NN2C(c3ccc(C)cc3)=CSC2=NC(C)(C)C1 | > 100 | – | > 100 | > 100 | > 100 | > 100 | > 100 | > 100 | > 100 | > 100 | > 100 | > 100 | > 100 | > 100 | > 100 | > 100 | > 100 | – | – |
| COc1ccc(N2C(=O)c3c(c4[nH]c5ccc(OC)cc5c4c4ccc(C(C)(C)C)cc34)C2=O)cc1 | > 100 | – | > 100 | > 100 | > 100 | > 100 | > 100 | > 100 | > 100 | > 100 | > 100 | > 100 | > 100 | > 100 | > 100 | > 100 | > 100 | – | – |
| CCN1C(=O)/C(=C2\SC(c3ccccc3)(c3ccccc3)c3ccccc32)SC1=S | > 100 | – | > 100 | > 100 | > 100 | > 100 | > 100 | > 100 | > 100 | > 100 | – | > 100 | > 100 | > 100 | > 100 | 82.4 | > 100 | > 100 | > 100 |
| Cc1ccc2c(c1)C1C(CO2)C(c2ccccc2)=NN1c1ccccc1 (stereo unspecified) | > 100 | – | > 100 | > 100 | > 100 | > 100 | > 100 | > 100 | > 100 | > 100 | > 100 | > 100 | > 100 | > 100 | > 100 | > 100 | > 100 | – | – |
| C[C@H](NC(=O)n1c2ccccc2c2ccccc21)C(=O)O | > 100 | > 100 | > 100 | > 100 | > 100 | > 100 | > 100 | > 100 | > 100 | > 100 | > 100 | > 100 | > 100 | > 100 | > 100 | > 100 | > 100 | – | – |
| CCOC(=O)C(=[N+]=[N-])C(=O)CN1C(=O)C2CC(C)=C(C)CC2C1O (stereo unspecified) | > 100 | – | > 100 | > 100 | > 100 | > 100 | > 100 | > 100 | > 100 | > 100 | > 100 | > 100 | > 100 | > 100 | > 100 | – | > 100 | > 100 | > 100 |
| C/C(=N\NS(=O)(=O)c1ccc(C)cc1)c1cc2ccccc2n1C | > 100 | – | > 100 | > 100 | > 100 | > 100 | > 100 | > 100 | > 100 | > 100 | > 100 | > 100 | – | > 100 | – | – | > 100 | – | – |
| COC(=O)N/N=C(\C(=O)Nc1cccc([N+](=O)[O-])c1)c1nc2ccc([N+](=O)[O-])cc2[nH]c1=O | > 100 | – | > 100 | 96.6 | > 100 | > 100 | > 100 | > 100 | > 100 | 13.3 | – | > 100 | > 100 | > 100 | > 100 | > 100 | > 100 | – | – |
| O=C(Nc1nc(C23CC4CC(CC(C4)C2)C3)cs1)c1cc2cc(Cl)ccc2oc1=O | > 100 | > 100 | > 100 | > 100 | > 100 | > 100 | > 100 | > 100 | > 100 | – | – | > 100 | > 100 | > 100 | > 100 | > 100 | > 100 | > 100 | > 100 |
| CN(C)CCC(CCN(C)C)=NOC(=O)c1ccccc1 | > 100 | > 100 | > 100 | > 100 | > 100 | > 100 | > 100 | > 100 | > 100 | > 100 | > 100 | > 100 | > 100 | > 100 | > 100 | – | > 100 | – | – |
| CC(=O)OC1CC2(C)OC(Cc3ccccc32)O1 (stereo unspecified) | > 100 | – | > 100 | > 100 | > 100 | > 100 | > 100 | > 100 | > 100 | > 100 | > 100 | > 100 | > 100 | > 100 | > 100 | > 100 | > 100 | – | – |
| Cc1[nH]n(C(=N)N)c(=O)c1CCO | – | > 100 | – | > 100 | > 100 | – | > 100 | 3.17 | – | > 100 | > 100 | > 100 | > 100 | > 100 | > 100 | > 100 | > 100 | > 100 | > 100 |
| COc1cc(CNC2=NCCC2)cc(OC)c1OC | – | > 100 | > 100 | > 100 | > 100 | – | > 100 | > 100 | > 100 | > 100 | – | > 100 | > 100 | > 100 | > 100 | > 100 | > 100 | > 100 | – |
| CC(C)(C)CNC(=O)NCn1cc(-c2ccccc2)nn1 | > 100 | > 100 | > 100 | > 100 | > 100 | > 100 | > 100 | > 100 | > 100 | > 100 | > 100 | > 100 | – | > 100 | > 100 | > 100 | > 100 | > 100 | – |
| Cc1cc2oc(-c3ccccc3)c(C)c(=O)c2c2c1OC(C)(C)S2 | > 100 | – | > 100 | > 100 | > 100 | > 100 | > 100 | > 100 | > 100 | > 100 | > 100 | > 100 | > 100 | > 100 | > 100 | > 100 | > 100 | – | – |
